This note sets out measurements from ChEMBL document CHEMBL3259532, “Elucidation of different inhibition mechanism of small chemicals on PtdInsP-binding domains using in silico docking experiments” (Bioorg Med Chem Lett, 2014).

Structures are written as SMILES.

In assay [1] the target is T1, Epsin-1 (Homo sapiens) (UniProt Q9Y6I3).
T1 sequence (whole entry): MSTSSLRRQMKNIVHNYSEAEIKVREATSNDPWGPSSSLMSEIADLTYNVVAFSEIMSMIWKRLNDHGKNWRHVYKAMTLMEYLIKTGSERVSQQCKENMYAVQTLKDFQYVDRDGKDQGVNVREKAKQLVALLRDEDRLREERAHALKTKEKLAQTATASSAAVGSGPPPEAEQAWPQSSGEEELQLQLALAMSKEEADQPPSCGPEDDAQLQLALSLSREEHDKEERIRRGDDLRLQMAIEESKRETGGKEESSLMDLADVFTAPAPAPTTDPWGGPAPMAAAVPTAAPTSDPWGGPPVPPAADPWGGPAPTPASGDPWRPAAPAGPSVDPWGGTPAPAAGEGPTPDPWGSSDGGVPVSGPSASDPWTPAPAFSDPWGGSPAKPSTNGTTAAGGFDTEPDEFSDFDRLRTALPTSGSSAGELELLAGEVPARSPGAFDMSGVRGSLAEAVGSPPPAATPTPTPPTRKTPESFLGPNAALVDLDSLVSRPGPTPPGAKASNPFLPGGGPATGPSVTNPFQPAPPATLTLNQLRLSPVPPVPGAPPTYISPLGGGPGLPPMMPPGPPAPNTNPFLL
The assay can be described thus: Inhibition of C-terminal 6xHis-tagged epsin-1 ENTH domain (unknown origin) expressed in Escherichia coli BL21(DE3) RIL assessed as inhibition of interaction with PtdIns(4,5)P2 at 100 uM after 15 mins by SPR analysis relative to control. On the technique in general: Surface plasmon resonance follows binding to a sensor surface in real time, without labels.

Assay [2] addresses T2, Cytohesin-3 (Homo sapiens) (UniProt O43739).
T2 sequence (whole entry): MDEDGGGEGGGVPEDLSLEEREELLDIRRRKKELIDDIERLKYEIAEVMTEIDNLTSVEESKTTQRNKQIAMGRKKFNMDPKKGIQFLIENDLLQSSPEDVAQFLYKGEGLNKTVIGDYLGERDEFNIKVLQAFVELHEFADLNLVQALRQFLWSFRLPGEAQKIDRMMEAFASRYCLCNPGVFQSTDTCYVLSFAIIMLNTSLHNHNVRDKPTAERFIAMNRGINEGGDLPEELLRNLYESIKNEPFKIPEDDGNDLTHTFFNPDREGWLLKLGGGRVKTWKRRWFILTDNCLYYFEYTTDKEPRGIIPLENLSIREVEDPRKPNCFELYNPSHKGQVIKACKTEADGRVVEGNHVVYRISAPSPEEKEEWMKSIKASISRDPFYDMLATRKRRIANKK
Nature of the assay: Inhibition of C-terminal 6xHis-tagged Grp1 PH domain (unknown origin) expressed in Escherichia coli BL21(DE3) RIL assessed as inhibition of interaction with PtdIns(3,4,5)P3 at 500 uM after 15 mins by SPR analysis relative to control.

For assay [3], the target named is T3, Cytohesin-3 (Homo sapiens, UniProt O43739).
T3 sequence (O43739 whole entry): T2 sequence (whole entry)
The assay can be described thus: Inhibition of recombinant C-terminal 6xHis-tagged Grp1 PH domain (unknown origin) expressed in Escherichia coli BL21(DE3) RIL assessed as inhibition of interaction with PtdIns(3,4,5)P3 after 15 mins by SPR analysis.

On to `O=C(O)c1cc(P(=O)(O)O)n[nH]1`, for which the inhibition in assay [1] amounted to 61%; in assay [2], 77%. Also, the IC50 in assay [3] worked out at 38 µM.
Regarding `O=C1[C@@H]2C[C@@H]3CC[C@@]2(O3)[C@@H](P(=O)(O)O)N1Cc1ccccc1`, the figures for the inhibition in assay [1] and in assay [2] were 13% and 0%, respectively.
The like results for `CCOP(=O)(O)c1cc(C(=O)O)[nH]n1` were, in that order, 57% and 36%.
For `COP(=O)(O)C1=NNC(C)(C(=O)O)C1` (stereo unspecified), the inhibition in assay [1] amounted to 8.3%; in assay [2], 48%.
The like results for `CC1(C(=O)O)CC([PH](=O)O)=NN1` (stereo unspecified) were, in that order, 8% and 63%.

As usually defined, the inhibition is the relative decrease from the control value, in per cent. By IC50 is commonly meant the concentration that inhibits the measured activity by half.
